Source: article PMC3104405 (Biochemical and biophysical research communications, 2011)
Several values for one entry are separate records, joined by “and”; a condition that tells them apart may be missing. Equal entries are not always repeated. Where two headings read alike, the source gives them in different places.

Assays:
[1] = molecular target: T1, anthrax lethal factor (LF) (Bacillus anthracis, UniProt P15917)
[2] = molecular target: T1, anthrax lethal factor (LF); conditions: for Km / kcat / kcat/Km: pH 7.4

T1 sequence (P15917 34-809 limits assumed): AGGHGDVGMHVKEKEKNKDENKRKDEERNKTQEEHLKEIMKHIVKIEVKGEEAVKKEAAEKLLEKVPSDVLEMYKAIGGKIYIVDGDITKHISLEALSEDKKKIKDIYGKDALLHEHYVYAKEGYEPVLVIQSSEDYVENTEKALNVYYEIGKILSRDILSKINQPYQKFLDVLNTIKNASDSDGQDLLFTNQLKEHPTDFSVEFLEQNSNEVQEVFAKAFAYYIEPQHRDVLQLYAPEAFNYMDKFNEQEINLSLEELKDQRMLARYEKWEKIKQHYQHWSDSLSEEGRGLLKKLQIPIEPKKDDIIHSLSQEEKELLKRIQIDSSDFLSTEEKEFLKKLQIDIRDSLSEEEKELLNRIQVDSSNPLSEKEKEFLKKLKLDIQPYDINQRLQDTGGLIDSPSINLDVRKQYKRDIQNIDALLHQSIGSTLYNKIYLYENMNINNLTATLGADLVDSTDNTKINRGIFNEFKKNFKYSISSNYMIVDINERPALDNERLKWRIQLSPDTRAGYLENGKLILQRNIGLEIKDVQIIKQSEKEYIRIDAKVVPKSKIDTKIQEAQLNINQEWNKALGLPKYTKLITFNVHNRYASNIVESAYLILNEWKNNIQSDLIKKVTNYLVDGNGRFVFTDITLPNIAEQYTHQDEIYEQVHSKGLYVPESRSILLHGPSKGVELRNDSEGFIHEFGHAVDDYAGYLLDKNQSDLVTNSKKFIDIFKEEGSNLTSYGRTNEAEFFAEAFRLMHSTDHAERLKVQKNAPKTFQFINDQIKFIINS

Substance: Mca-KKPTP-IQLN-Dnp [Substrate 1]
- kcat/Km [1]: 1.5 min^−1 M^−1 and 1.5 ^a min^−1 M^−1

Substance: Mca-KKVYP-YPMEK-Dnp [Substrate 2]
- Km [2]: 58.5 µM
- kcat [2]: 74.17 s⁻¹
- kcat/Km [2]: 1.27 M⁻¹ s⁻¹

Substance: Mca-KKWLM-YPLEK-Dnp [Substrate 3]
- fold higher kcat/Km than substrate No. 2 [2]: about two-fold
- Km [2]: 16.9 µM
- kcat [2]: 39.83 s⁻¹
- kcat/Km [2]: 2.33 M⁻¹ s⁻¹
